# Key:
# Assay in all cases: relative viability (nuclei count vs DMSO), 5 days (fraction); higher = more cells survive
# AT9283 + AZD7762 = compound: O=C(Nc1c[nH]nc1-c1nc2ccc(CN3CCOCC3)cc2[nH]1)NC1CC1 [AT9283] + NC(=O)Nc1cc(-c2cccc(F)c2)sc1C(=O)N[C@H]1CCCNC1 [AZD7762] (partner 0.2 µM)
# Summary of the method: (§1)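 Cells from lung cancer lines were seeded into 1536-well plates and, one day later, dosed by pin tool. Treatments were either a single drug or a fixed dose of an anchor drug with five library-drug doses (not always all listed) in √10 steps. After 5 days, nuclei were stained in a one-step fixation (final 0.05% Triton X-100, 1% formaldehyde, 1 ug/ml Hoechst) and counted on 4× images, and relative viability is the treated-to-vehicle nuclei ratio, as the median of duplicate plates.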
# AT9283 + OSI-027 = compound: O=C(Nc1c[nH]nc1-c1nc2ccc(CN3CCOCC3)cc2[nH]1)NC1CC1 [AT9283] + COc1cccc2cc(-c3nc([C@H]4CC[C@H](C(=O)O)CC4)n4ncnc(N)c34)[nH]c12 [OSI-027] (partner 0.5 µM)
# Summary of the method: as §1
# Erlotinib + Foretinib = compound: C#Cc1cccc(Nc2ncnc3cc(OCCOC)c(OCCOC)cc23)c1 [Erlotinib] + COc1cc2c(Oc3ccc(NC(=O)C4(C(=O)Nc5ccc(F)cc5)CC4)cc3F)ccnc2cc1OCCCN1CCOCC1 [Foretinib] (partner 0.25 µM)
# Summary of the method: as §1
# Erlotinib + Phenformin = compound: C#Cc1cccc(Nc2ncnc3cc(OCCOC)c(OCCOC)cc23)c1 [Erlotinib] + N=C(N)NC(=N)NCCc1ccccc1 [Phenformin] (partner 250 µM)
# Summary of the method: as §1
# AT9283 + Vorinostat = compound: O=C(Nc1c[nH]nc1-c1nc2ccc(CN3CCOCC3)cc2[nH]1)NC1CC1 [AT9283] + O=C(CCCCCCC(=O)Nc1ccccc1)NO [Vorinostat] (partner 1 µM)
# Summary of the method: as §1
cell line,measurement,setting,value
NCI-H441,relative viability,AT9283 + AZD7762; first compound 0.003 µM,1.06
same,relative viability,AT9283 + AZD7762; first compound 0.03 µM,1.1
same,relative viability,AT9283 + AZD7762; first compound 0.09487 µM,0.894
same,relative viability,AT9283 + AZD7762; first compound 0.3 µM,0.633
same,relative viability,AT9283 + OSI-027; first compound 0.003 µM,0.532
same,relative viability,AT9283 + OSI-027; first compound 0.03 µM,0.574
same,relative viability,AT9283 + OSI-027; first compound 0.09487 µM,0.321
same,relative viability,AT9283 + OSI-027; first compound 0.3 µM,0.333
same,relative viability,Erlotinib + Foretinib; first compound 0.02 µM,1.01
same,relative viability,Erlotinib + Foretinib; first compound 0.2 µM,1.02
same,relative viability,Erlotinib + Foretinib; first compound 0.6325 µM,0.933
same,relative viability,Erlotinib + Foretinib; first compound 2 µM,0.883
same,relative viability,Erlotinib + Phenformin; first compound 0.02 µM,0.883
same,relative viability,Erlotinib + Phenformin; first compound 0.2 µM,0.863
same,relative viability,Erlotinib + Phenformin; first compound 0.6325 µM,0.892
same,relative viability,AT9283 + Vorinostat; first compound 0.003 µM,0.698
same,relative viability,AT9283 + Vorinostat; first compound 0.03 µM,0.499
same,relative viability,AT9283 + Vorinostat; first compound 0.09487 µM,0.669
same,relative viability,AT9283 + Vorinostat; first compound 0.3 µM,0.307

# From the supplement of paper PMC10307832
